For data set [1], the target named is T1, OATP1B2 (Mus musculus, UniProt Q9JJL3).
T1 construct: expressed in transfected cells; host or cells: HEK293
T1 sequence (Q9JJL3 1-689): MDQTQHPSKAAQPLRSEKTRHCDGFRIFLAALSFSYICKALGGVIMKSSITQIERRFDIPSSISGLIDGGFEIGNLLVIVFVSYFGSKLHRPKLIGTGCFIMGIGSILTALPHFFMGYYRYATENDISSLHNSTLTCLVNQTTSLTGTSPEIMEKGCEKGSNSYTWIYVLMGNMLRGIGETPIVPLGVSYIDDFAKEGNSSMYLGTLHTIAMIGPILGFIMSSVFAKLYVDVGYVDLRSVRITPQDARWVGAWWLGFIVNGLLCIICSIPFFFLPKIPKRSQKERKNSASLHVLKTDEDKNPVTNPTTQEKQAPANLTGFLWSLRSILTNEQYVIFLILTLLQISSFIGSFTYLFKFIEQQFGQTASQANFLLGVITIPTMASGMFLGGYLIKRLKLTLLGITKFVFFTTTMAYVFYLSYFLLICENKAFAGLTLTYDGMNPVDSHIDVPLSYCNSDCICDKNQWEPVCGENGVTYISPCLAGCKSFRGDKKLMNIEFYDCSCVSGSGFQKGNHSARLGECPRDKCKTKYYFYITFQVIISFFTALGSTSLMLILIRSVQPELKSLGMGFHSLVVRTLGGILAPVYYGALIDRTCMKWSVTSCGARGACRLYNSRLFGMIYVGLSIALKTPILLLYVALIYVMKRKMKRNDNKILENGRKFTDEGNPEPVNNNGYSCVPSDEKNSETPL
As to the kind of experiment: Transport inhibition assay: 8-FcA uptake in OATP1B2 overexpressing HEK293 cells. It counts as cell-based. The following applies: OATP1B2 overexpressing HEK293 cells vs vector control; fluorescent probe 8-FcA; read-out: IC50, inhibition of OATP1B2 function. The procedure: Transport inhibition assays using 8-(2-[fluoresceinyl]-aminoethylthio)-adenosine-3′,5′-cyclic-monophosphate (8-FcA) were completed as previously described. OAT1B2 overexpressing cells and vector control cells were grown to confluency in a 96-well plate. Cells were washed, then incubated for 15 min with 100 μL phenol red-free DMEM containing gilteritinib or vehicle (DMSO). The media was removed, then cells were incubated with 45 μL media containing 25 μM 8-FcA for 30 min. The media was removed and cells were washed three times with ice cold PBS. Fluorescence was measured on a plate reader at excitation and emission wavelengths of 485 and 535 nm, respectively. Cells were lysed with 0.2% nitric acid at 4 °C overnight and a Pierce protein assay was used to normalize the data to total protein.

The conditions of data set [2]: human, in vivo; cited from earlier work.
Data set [3] addresses T2, human OATP1B1 (SLCO1B1) (Homo sapiens, UniProt Q9Y6L6).
T2 construct: expressed in transfected cells; host or cells: HEK293
T2 sequence (Q9Y6L6 1-691): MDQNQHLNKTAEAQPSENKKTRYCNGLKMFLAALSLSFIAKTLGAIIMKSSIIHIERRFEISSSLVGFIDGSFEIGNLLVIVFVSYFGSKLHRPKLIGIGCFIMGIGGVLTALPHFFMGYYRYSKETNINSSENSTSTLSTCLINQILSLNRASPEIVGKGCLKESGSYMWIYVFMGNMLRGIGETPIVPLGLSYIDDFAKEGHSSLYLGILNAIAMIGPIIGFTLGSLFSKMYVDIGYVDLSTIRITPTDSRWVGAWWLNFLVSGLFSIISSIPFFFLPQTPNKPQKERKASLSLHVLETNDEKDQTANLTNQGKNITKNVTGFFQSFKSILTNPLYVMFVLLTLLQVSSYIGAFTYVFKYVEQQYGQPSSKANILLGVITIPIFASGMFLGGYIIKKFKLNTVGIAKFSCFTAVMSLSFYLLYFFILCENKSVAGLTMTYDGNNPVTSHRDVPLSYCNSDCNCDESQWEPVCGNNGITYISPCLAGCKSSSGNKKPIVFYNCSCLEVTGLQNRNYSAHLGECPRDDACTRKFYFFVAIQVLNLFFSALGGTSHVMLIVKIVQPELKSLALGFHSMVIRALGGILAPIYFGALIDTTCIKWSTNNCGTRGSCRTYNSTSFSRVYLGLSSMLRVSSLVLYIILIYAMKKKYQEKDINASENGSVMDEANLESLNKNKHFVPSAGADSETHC
As to the kind of experiment: Transport inhibition assay: EβG uptake in OATP1B1 overexpressing HEK293 cells. It counts as cell-based. Here is the method:
Human embryonic kidney (HEK293) cells stably transfected with human OATP1B1 (SLCO1B1) cDNA, or an empty control vector were established and cultured as previously described. Cells were maintained in DMEM supplemented with 10% FBS, 50 µg/mL hygromycin B, 15 µg/mL blasticidin, and maintained in a humidified incubator at 37 °C with 5% CO2. Prior to plating, 24-well tissue culture plates (Thermo Fisher Scientific) were coated with poly-d-lysine. Seeding media was prepared using phenol red-free DMEM with 10% FBS with no selection agents. To the seeding media, […] of doxycycline was added to induce expression of OATP1B1.
OATP1B1 overexpressing cells and vector control cells were plated in 24-well tissue culture plates at a volume of 0.5 mL (containing 2 × 10^6 cells/mL) per well. Plates were returned to an incubator at 37 °C and transport assays were conducted 24 h later. Transport activity was measured using EβG, a prototypical substrate of OATP1B1. Experiments were conducted using phenol red- and serum-free DMEM. Intracellular levels of total radioactivity originating from EβG were assessed by liquid scintillation counting. The resulting counts were normalized to total protein levels as determined by a Pierce protein assay. The influence of gilteritinib, itraconazole, keto-itraconazole, or hydroxy-itraconazole on OATP1B1-mediated transport was assessed following a 15 min pre-incubation at various concentrations of test inhibitors followed by co-incubation of test inhibitors with EβG. Inhibition of transport activity by gilteritinib was determined by comparing the accumulation of EβG in the presence of gilteritinib, itraconazole, keto-itraconazole, or hydroxy-itraconazole to that of EβG in the presence of only the control vehicle, DMSO. The final concentration of DMSO in media was less than 0.2% in all in vitro experiments.

On the set-up of data set [4]: method as in PMID 32546970. The conditions noted are these: rats; cited from earlier work.

Broadly, the IC50 is the concentration that gives 50% inhibition. In general, Ki refers to a measure of affinity in units of concentration, obtained from inhibition or displacement.

As to `CCc1nc(C(N)=O)c(Nc2ccc(N3CCC(N4CCN(C)CC4)CC3)c(OC)c2)nc1NC1CCOCC1` [Gilteritinib], the IC50 in data set [1] was 1.83 µM; in data set [3] (OATP1B1 overexpressing HEK293 cells vs vector control, radiolabeled EβG, 15 min pre-incubation, read-out: IC50, inhibition of OATP1B1-mediated cellular accumulation of EβG) it was 2.23 µM. Moreover, the “Increase in gilteritinib exposure when co-administered with itraconazole” value in data set [2] is 2.2 fold. For the same molecule, the “Mechanism of inhibition of OATP1B transport of EβG” value in data set [3] (Dixon plot) is reported as “noncompetitively inhibits”. The Ki in data set [3] (gilteritinib 0.3–8.3 µM, EβG 0.2, 2, 20 µM, estimated, read-out: Ki (inhibition constant), EβG uptake by OATP1B1, Dixon plot) was 1.6 µM. For the same molecule, the “Increase in gilteritinib exposure by itraconazole” value in data set [4] is on record as 1.4 fold.

(Values after PMC9610999, “Itraconazole-Induced Increases in Gilteritinib Exposure Are Mediated by CYP3A and OATP1B” (Molecules, 2022).)
